Results: US20190185479A1, “BICYCLIC NITROGENATED HETEROCYCLIC COMPOUND” (MITSUBISHI TANABE PHARMA CORPORATION, priority 2016, published 2019)

Experiments:
Assay type in all cases: biochemical
[1] = biological target: T1, Human PDE7B (hPDE7B) (Homo sapiens, UniProt Q9NP56); experiment: Measurement of PDE7 inhibitory activity (Experimental Example 1; residual cAMP, LANCE Ultra cAMP TR-FRET); conditions: cAMP 3 nmol/L, room temperature 60 minutes
T1 construct: made in house; host or cells: COS-7 cells
T1 sequence (Q9NP56 whole entry): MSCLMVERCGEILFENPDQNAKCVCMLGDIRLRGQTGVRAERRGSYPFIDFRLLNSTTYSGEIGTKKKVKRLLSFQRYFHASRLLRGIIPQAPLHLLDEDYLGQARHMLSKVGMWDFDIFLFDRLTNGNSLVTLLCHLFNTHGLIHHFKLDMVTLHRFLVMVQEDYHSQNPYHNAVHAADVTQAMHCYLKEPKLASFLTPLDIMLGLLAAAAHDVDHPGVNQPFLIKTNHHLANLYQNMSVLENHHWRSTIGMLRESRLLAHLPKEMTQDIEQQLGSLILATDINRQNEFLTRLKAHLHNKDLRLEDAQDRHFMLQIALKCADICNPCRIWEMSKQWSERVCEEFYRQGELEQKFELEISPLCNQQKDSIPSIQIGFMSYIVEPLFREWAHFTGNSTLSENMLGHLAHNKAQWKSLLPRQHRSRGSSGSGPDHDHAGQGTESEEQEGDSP
Outline: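 hPDE7B from transfected COS-7 cells reacted with 3 nmol/L cAMP (final) and compound (2% DMSO) in 50 mmol/L Tris-HCl pH 7.5, 1 mmol/L MgCl2, 0.1% BSA, 0.5 mmol/L DTT, 60 min at room temperature. Reaction stopped with IBMX; residual cAMP measured by TR-FRET. Inhibition scaled between no-compound and no-enzyme controls.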

[2] = biological target: T2, hPDE8B (Homo sapiens, UniProt O95263); experiment: PDE8 inhibition assay (IC50), Experimental Example 3; conditions: for IC50: hPDE8B, read-out: PDE inhibition assay IC50, PDE8; for inhibition rate (%) at prescribed concentration, PDE8 / inhibition at 1 µM: at 1 μmol/L
T2 construct: purchased SB Drug Discovery
T2 sequence (O95263 whole entry): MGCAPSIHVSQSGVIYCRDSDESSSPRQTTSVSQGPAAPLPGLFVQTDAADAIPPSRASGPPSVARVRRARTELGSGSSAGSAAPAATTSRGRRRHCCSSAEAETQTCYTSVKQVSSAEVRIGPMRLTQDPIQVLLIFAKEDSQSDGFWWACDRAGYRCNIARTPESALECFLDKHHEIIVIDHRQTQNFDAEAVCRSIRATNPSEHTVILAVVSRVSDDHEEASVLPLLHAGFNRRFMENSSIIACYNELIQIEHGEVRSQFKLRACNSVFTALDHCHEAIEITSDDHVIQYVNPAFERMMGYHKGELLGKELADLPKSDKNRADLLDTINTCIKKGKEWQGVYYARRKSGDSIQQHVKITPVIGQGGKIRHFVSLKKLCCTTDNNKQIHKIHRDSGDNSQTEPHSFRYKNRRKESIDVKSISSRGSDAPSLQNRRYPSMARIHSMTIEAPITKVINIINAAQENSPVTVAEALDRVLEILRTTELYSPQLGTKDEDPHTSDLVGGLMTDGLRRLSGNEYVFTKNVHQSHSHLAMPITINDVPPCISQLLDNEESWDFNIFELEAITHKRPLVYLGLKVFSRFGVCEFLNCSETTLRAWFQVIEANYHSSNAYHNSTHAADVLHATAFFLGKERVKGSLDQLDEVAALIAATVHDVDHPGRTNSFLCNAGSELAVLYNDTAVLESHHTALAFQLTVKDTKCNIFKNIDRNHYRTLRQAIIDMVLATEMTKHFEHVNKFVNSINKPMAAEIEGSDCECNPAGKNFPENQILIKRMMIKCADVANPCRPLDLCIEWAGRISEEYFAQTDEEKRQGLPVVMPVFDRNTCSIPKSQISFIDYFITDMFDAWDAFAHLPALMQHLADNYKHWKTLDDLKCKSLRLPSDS
Protocol: (§1) PDE7 inhibitory assay was carried out by reacting the mixture of a compound, hPDE7B, and cAMP, and measuring the residual cAMP by a detection method using LANCE (registered trademark) Ultra cAMP Detection Kit (ParkinElmer). The compound was dissolved in DMSO, and diluted so that the concentration would become 50 times of the final concentration. The hPDE7B and cAMP were diluted with an assay buffer (50 mmol/L Tris-HCl, 1 mmol/L MgCl2, 0.1% BSA, 0.5 mmol/L DTT, pH7.5) so that the hPDE7B would have an appropriate enzyme activity and the concentration of cAMP would become 6 nmol/L. To a 96 well plate were added the compound (2 μL) (DMSO final concentration: 2%), hPDE7B (48 μL), and cAMP (50 μL) (concentration at the reaction: 3 nmol/L), and the resulting mixture was reacted at room temperature for 60 minutes. The reaction solution (20 μL) was subjected to a TR-FRET method according to the protocol specified by the kit to measure the concentration of the residual cAMP. In the assay, to a tracer solution specified by the kit was added 0.5 mmol/L of 3-isobutyl-1-methylxanthine (IBMX, nonselective PDE inhibitor) in order to stop the PDE enzyme reaction after the completion of reaction until the measurement.
(§2) The prediction of PDE7 selectivity was evaluated by comparing each IC50 value of a compound against PDE4, 8, and 10 with the IC50 value of said compound against PDE7B.
(§3) hPDE4D, hPDE8B, and hPDE10A were prepared by the same method as [Method for preparing samples 2].
(§4) PDE4, 8, and 10 inhibitory assays were carried out by the same method as [Assay procedure 1].
(§5) The reaction without a compound wad defined as “0% inhibition”, the reaction without each PDE was defined as “100% inhibition”, and the calculation of IC50 value was carried out by the same method as <Method for data calculation 1>.

[3] = biological target: hPDE10A (Homo sapiens, UniProt Q9Y233); experiment: PDE10 inhibition assay (IC50), Experimental Example 3; conditions: for IC50: hPDE10A, read-out: PDE inhibition assay IC50, PDE10
hPDE10A, sequence (Q9Y233 290-1055 limits assumed): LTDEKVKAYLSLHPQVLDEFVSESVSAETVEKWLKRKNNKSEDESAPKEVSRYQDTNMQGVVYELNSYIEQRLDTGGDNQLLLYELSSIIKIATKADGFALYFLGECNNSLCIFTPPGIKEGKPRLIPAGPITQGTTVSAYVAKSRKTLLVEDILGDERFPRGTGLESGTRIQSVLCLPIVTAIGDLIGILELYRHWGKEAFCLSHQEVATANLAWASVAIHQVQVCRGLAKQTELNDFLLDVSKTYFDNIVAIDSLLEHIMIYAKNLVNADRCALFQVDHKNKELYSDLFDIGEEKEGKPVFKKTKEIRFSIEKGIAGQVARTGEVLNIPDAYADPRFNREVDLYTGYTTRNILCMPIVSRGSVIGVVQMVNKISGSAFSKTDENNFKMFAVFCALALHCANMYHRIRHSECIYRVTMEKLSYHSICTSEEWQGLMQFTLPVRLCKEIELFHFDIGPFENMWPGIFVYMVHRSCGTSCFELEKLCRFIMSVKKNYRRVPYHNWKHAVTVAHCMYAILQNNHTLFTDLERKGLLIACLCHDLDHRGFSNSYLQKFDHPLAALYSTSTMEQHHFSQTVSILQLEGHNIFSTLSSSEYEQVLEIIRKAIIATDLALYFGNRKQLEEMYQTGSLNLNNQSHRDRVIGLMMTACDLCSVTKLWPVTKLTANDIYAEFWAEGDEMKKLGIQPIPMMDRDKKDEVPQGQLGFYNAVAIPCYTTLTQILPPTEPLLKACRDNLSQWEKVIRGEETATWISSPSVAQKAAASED
Protocol: as §1, §2, §3, §4, §5

[4] = biological target: T3, hPDE4D (Homo sapiens, UniProt Q08499); experiment: PDE4 inhibition assay (IC50), Experimental Example 3; conditions: for IC50: hPDE4D, read-out: PDE inhibition assay IC50, PDE4
T3 construct: purchased SB Drug Discovery
T3 sequence (Q08499 whole entry): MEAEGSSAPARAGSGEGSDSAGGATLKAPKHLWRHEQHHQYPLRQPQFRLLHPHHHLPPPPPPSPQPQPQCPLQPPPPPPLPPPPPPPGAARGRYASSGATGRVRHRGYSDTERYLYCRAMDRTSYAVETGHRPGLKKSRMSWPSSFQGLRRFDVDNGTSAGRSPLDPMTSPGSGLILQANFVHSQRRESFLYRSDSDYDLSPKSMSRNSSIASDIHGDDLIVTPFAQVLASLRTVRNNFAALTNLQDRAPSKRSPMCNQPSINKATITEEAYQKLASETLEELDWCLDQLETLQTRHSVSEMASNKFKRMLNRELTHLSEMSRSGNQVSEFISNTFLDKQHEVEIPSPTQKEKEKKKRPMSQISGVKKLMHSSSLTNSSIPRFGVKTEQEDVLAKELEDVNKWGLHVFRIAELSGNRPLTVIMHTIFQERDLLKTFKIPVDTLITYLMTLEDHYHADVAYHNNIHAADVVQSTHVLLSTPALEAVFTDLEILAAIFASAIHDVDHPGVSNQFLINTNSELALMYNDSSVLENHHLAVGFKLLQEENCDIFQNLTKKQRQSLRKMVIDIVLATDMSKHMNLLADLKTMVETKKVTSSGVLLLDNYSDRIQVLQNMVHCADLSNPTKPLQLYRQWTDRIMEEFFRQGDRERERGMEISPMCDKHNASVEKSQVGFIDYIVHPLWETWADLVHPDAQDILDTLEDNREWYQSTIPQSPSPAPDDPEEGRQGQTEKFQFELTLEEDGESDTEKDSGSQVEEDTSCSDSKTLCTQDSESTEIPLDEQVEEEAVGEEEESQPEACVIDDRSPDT
Protocol: as §1, §2, §3, §4, §5

[5] = read-out: inhibition rate (%) at prescribed concentration, PDE8
[6] = at 10 μmol/L, read-out: inhibition rate (%) at prescribed concentration, PDE10

Nc1nccn2c([C@H]3C[C@@H](C(F)(F)F)CCC3(F)F)nnc12 (racemic) [Example 172, 3-[cis-2,2-difluoro-5-(trifluoromethyl)cyclohexyl][1,2,4]triazolo[4,3-a]pyrazin-8-amine]
IC50 [1]: < 0.01 µM
IC50 [2]: 9 µM
IC50 [3]: 21.8 µM
IC50 [4]: 5.9 µM

CC1CCCN(c2nnc3c(N)nccn23)C1C (single isomer, unassigned) [Example 57, 3-(2,3-dimethylpiperidin-1-yl) [1,2,4]triazolo[4,3-a]pyrazin-8-amine]
IC50 [1]: 0.05 µM
IC50 [2]: 9.9 µM
IC50 [3]: 8.7 µM
IC50 [4]: 6.4 µM

CC1CCCCC1c1nnc2c(N)ncnn12 (single isomer, unassigned) [Example 70, 3-(cis-2-methylcyclohexyl) [1,2,4]triazolo[3,4-f][1,2,4]triazin-8-amine]
IC50 [1]: 0.025 µM
inhibition rate (%) at prescribed concentration, PDE8 [2]: 64% at 1
IC50 [3]: 1.8 µM
inhibition rate (%) at prescribed concentration, PDE4 ([4]; at 1 μmol/L): 67% at 1

CC1CCCC(c2nnc3c(N)ncnn23)C1 (single isomer, unassigned) [Example 72, 3-(cis-3-methylcyclohexyl) [1,2,4]triazolo[3,4-f][1,2,4]triazin-8-amine]
IC50 [1]: 0.01 µM
inhibition rate (%) at prescribed concentration, PDE8 [2]: 62% at 1
IC50 [3]: 8.91 µM
IC50 [4]: 1.49 µM

Nc1ncnn2c(C3CCCC(C(F)(F)F)C3)nnc12 (single isomer, unassigned) [Example 75, 3-[cis-3-(trifluoromethyl)cyclohexyl][1,2,4]triazolo[3,4-f][1,2,4]triazin-8-amine]
IC50 [1]: 0.053 µM
IC50 [2]: 4.33 µM
inhibition at 100 µM ([3]; at 100 μmol/L, read-out: inhibition rate (%) at prescribed concentration, PDE10): 44%
IC50 [4]: 27.1 µM

Nc1ncnc2c1nnn2C1CCCCC1(F)F (single isomer, unassigned) [Example 115, 3-(2,2-difluorocyclohexyl)-3H-[1,2,3]triazolo[4,5-d]pyrimidin-7-amine]
IC50 [1]: < 0.01 µM
inhibition at 1 µM [2, 5]: 52%
IC50 [3]: 12.3 µM
IC50 [4]: 11.9 µM

CC1CCC(C(F)(F)F)CC1c1nnc2c(N)nccn12 (single isomer, unassigned) [Example 174, 3-[2-methyl-5-(trifluoromethyl)cyclohexyl][1,2,4]triazolo[4,3-a]pyrazin-8-amine]
IC50 [1]: 0.003 µM
IC50 [2]: 6.8 µM
IC50 [3]: 1.3 µM
IC50 [4]: 6 µM

CC1CCC(F)(F)CC1c1nnc2c(N)nccn12 (single isomer, unassigned) [Example 175, 3-(cis-5,5-difluoro-2-methylcyclohexyl) [1,2,4]triazolo[4,3-a]pyrazin-8-amine]
IC50 [1]: < 0.01 µM
IC50 [2]: 19.5 µM
IC50 [3]: 1.9 µM
IC50 [4]: 14.9 µM

CC1(C)CC(c2nnc3c(N)nccn23)CC(F)(F)C1 (single isomer, unassigned) [Example 177, 3-(3,3-difluoro-5,5-dimethylcyclohexyl) [1,2,4]triazolo[4,3-a]pyrazin-8-amine]
IC50 [1]: 0.035 µM
IC50 [2]: 13.7 µM
IC50 [3]: 13.3 µM
IC50 [4]: 21 µM

CC1CCCCC1n1nnc2c(N)ncnc21 (single isomer, unassigned) [Example 192, 3-(trans-2-methylcyclohexyl)-3H-[1,2,3]triazolo[4,5-d]pyrimidin-7-amine]
IC50 [1]: 0.04 µM
IC50 [2]: 4.18 µM
IC50 [3]: 8.25 µM
inhibition at 10 µM ([4]; at 10 μmol/L, read-out: inhibition rate (%) at prescribed concentration, PDE4): 45%

Nc1ncnc2c1nnn2C1CCCCC1F (single isomer, unassigned) [Example 194, 3-(cis-2-fluorocyclohexyl)-3H-[1,2,3]triazolo[4,5-d]pyrimidin-7-amine]
IC50 [1]: 0.04 µM
inhibition at 1 µM [2, 5]: 79%
IC50 [3]: 12.2 µM
IC50 [4]: 6.98 µM

Nc1ncnc2c1nnn2C1CCCCC1F (single isomer, unassigned) [Example 195, 3-(cis-2-fluorocyclohexyl)-3H-[1,2,3]triazolo[4,5-d]pyrimidin-7-amine]
IC50 [1]: 0.05 µM
IC50 [2]: 1.41 µM
IC50 [3]: 30.6 µM
IC50 [4]: 5.7 µM

CC1CCCC(n2nnc3c(N)ncnc32)C1 (single isomer, unassigned) [Example 196, 3-(cis-3-methylcyclohexyl)-3H-[1,2,3]triazolo[4,5-d]pyrimidin-7-amine]
IC50 [1]: < 0.01 µM
IC50 [2]: 0.29 µM
inhibition at 10 µM [3, 6]: 49%
IC50 [4]: 2.49 µM

CC1CCCC(n2nnc3c(N)ncnc32)C1 (single isomer, unassigned) [Example 199, 3-(trans-3-methylcyclohexyl)-3H-[1,2,3]triazolo[4,5-d]pyrimidin-7-amine]
IC50 [1]: 0.03 µM
IC50 [2]: 6.87 µM
inhibition rate (%) at prescribed concentration, PDE10 ([3]; at 10 μmol/L): 29% at 10
IC50 [4]: 3.84 µM

Nc1ncnc2c1nnn2C1CCCC(C(F)F)C1 (single isomer, unassigned) [Example 200]
IC50 [1]: 0.03 µM
IC50 [2]: 0.99 µM
IC50 [3]: 16.6 µM
IC50 [4]: 0.54 µM

Nc1ncnc2c1nnn2C1CCCC(C(F)(F)F)C1 (single isomer, unassigned) [Example 202, 3-[cis-3-(trifluoromethyl)cyclohexyl]-3H-[1,2,3]triazolo[4,5-d]pyrimidin-7-amine]
IC50 [1]: 0.014 µM
IC50 [2]: 1.16 µM
inhibition at 10 µM [3, 6]: 27%
IC50 [4]: 5.31 µM

CC1(C)CCCC(c2nnc3c(N)nccn23)C1 (single isomer, unassigned) [Example 207, 3-(3,3-dimethylcyclohexyl) [1,2,4]triazolo[4,3-a]pyrazin-8-amine]
IC50 [1]: < 0.01 µM
IC50 [2]: 1.5 µM
IC50 [3]: 10.2 µM
IC50 [4]: 10.5 µM

Nc1nccn2c(C3CCCC4(CC4)C3)nnc12 (single isomer, unassigned) [Example 208, 3-(spiro[2,5]oct-5-yl) [1,2,4]triazolo[4,3-a]pyrazin-8-amine]
IC50 [1]: < 0.01 µM
IC50 [2]: 3.4 µM
IC50 [3]: 8.6 µM
IC50 [4]: 10.3 µM

Nc1nccn2c(C3CCCC(C(F)(F)F)C3)nnc12 (single isomer, unassigned) [Example 210, 3-[cis-3-(trifluoromethyl)cyclohexyl][1,2,4]triazolo[4,3-a]pyrazin-8-amine]
IC50 [1]: 0.013 µM
IC50 [2]: 3.93 µM
IC50 [3]: 17.7 µM
IC50 [4]: 5.45 µM

CC1CC(c2nnc3c(N)nccn23)CC(F)(F)C1 (single isomer, unassigned) [Example 214]
IC50 [1]: 0.06 µM
IC50 [2]: 17.1 µM
IC50 [3]: 15.7 µM
IC50 [4]: 6.4 µM

CC1CC(c2nnc3c(N)nccn23)CC(F)(F)C1 (single isomer, unassigned) [Example 216, 3-(trans-3,3-difluoro-5-methylcyclohexyl[1,2,4]triazolo[4,3-a]pyrazin-8-amine]
IC50 [1]: 0.05 µM
IC50 [2]: 16.6 µM
IC50 [3]: 37.9 µM
IC50 [4]: 30.6 µM

Nc1nccn2c(C3CCC4CC4C3)nnc12 (single isomer, unassigned) [Example 218, 3-(bicyclo[4.1.0]hept-3-yl) [1,2,4]triazolo[4,3-a]pyrazin-8-amine]
IC50 [1]: 0.08 µM
IC50 [2]: 2.6 µM
IC50 [3]: 3 µM
IC50 [4]: 4.1 µM

Nc1nccn2c(C3CCC4CC4C3)nnc12 (single isomer, unassigned) [Example 219, 3-(bicyclo[4.1.0]hept-3-yl) [1,2,4]triazolo[4,3-a]pyrazin-8-amine]
IC50 [1]: 0.05 µM
IC50 [2]: 1.2 µM
IC50 [3]: 4.7 µM
IC50 [4]: 2.1 µM

Nc1nccn2c(C3CCC4CC4C3)nnc12 (single isomer, unassigned) [Example 221, 3-(bicyclo[4.1.0]hept-3-yl) [1,2,4]triazolo[4,3-a]pyrazin-8-amine]
IC50 [1]: 0.06 µM
inhibition at 0.1 µM ([2]; at 0.1 μmol/L, read-out: inhibition rate (%) at prescribed concentration, PDE8): 69%
IC50 [3]: 4.8 µM
inhibition at 0.1 µM ([4]; at 0.1 μmol/L, read-out: inhibition rate (%) at prescribed concentration, PDE4): 55%

CCC1CCCCN1c1nnc2c(N)nccn12 (single isomer, unassigned) [Example 222, 3-(2-ethylpiperidin-1-yl) [1,2,4]triazolo[4,3-a]pyrazin-8-amine]
IC50 [1]: 0.08 µM
IC50 [2]: 10.6 µM
IC50 [3]: 6.42 µM
IC50 [4]: 3.24 µM
